# Measurements published in US6486097B2, “Herbicidal fatty acid and maleic hydrazide salt compositions” (W. Neudorff GmbH KG, priority 2000, dated 2002).
# Legend:
# [1] = system: dandelions; experiment: Field dandelion test with added alcohol and gum (Example 6); assay type: in vivo; conditions: 0.2 L/m^2, re-sprayed after 14 days, 10 days after second spray
# Procedure: This test compared the herbicidal activity of NH4C9, NH4MH and (NH4C9+NH4MH) with added alcohol and gums on dandelion mortality. The gum Kelzan S (Merck & Co., Inc.) at 0.08% was used as a thickener.
# This test also investigated the effect of adding NH4MH to emulsified C9 acid. The emulsified C9 acid solution was made by adding 3.5 g of C9 acid with 1.0 g of Tween 80 and 95.5 g water (no ammonium hydroxide was added). For the C9 acid+NH4MH solution, 13 g of water was replaced by 13 g of the 6.9% NH4MH stock solution.
# Every solution was sprayed onto 16 field-grown, medium-sized dandelions. All of the dandelions had leaves longer than 10 cm. The dandelions were sprayed at a rate of 0.2 L/m^2. All plants were re-sprayed 14 days after the first spray. The number of dead plants was assessed 10 days after the second spray.
# [2] = system: dandelions; experiment: Field dandelion test (Example 2); assay type: in vivo; conditions: 0.2 L/m^2, re-sprayed after 7 days, 38 days after first spray
# Procedure: This test compared the herbicidal activity of NH4C9, NH4MH, and NH4C9+NH4MH on dandelion mortality. This test also investigated the effect of adding isopropyl alcohol (IPA) to NH4C9+NH4MH. Nine dandelions were grown in 0.5 m^2 areas of soil in the field. At the time of spraying the dandelions were very large, with leaves longer than 25 cm. Every treatment was sprayed onto 4 areas of soil. Every 0.5 m^2 plot received 100 ml of solution (0.2 L/m^2). All of the areas were re-sprayed 7 days after the first spray. The number of dead plants was assessed 38 days after the first spray.
# Round Up (35.6% glyphosate N-(phosphonomethyl) glycine) produced by Monsanto, Killex (9.5% 2,4-D (2,4-dichlorophenoxy) acetic acid, Mecoprop (5% 2-(4-chloro-2-methylphenoxy)) propanoic acid and 0.9% Dicamba (3,6-dichloro-o-anisic acid) by Green Cross were diluted as per label instructions and included as standards.
# [3] = system: dandelions; experiment: Potted dandelion test of NH4C9 and NH4C11:1 with and without MH (Example 7); assay type: in vivo; conditions: for Number of Dead Plants of 15 Total: 0.5 L/m^2, sprayed twice 8 days apart, 8 days after second spray; for Contact herbicidal activity (in words): without NH4MH, treated plants were able to re-grow
# Description: Five-month-old potted dandelions were sprayed with solutions of ammonium fatty acid soaps in combination with NH4MH. The solutions contained 3.9% ammonium fatty acid soaps and 1.15% NH4MH. The plants were sprayed at a rate of 0.5 L/m^2. The plants were sprayed twice, with 8 days between sprays. Final observations were taken 8 days after the second spray. Fifteen plants were used per treatment.
# [4] = Viscosity of test solutions (Example 4); assay type: physicochemical; conditions: pH 7.38
# Description: (§1) This test studied the effect of thickening NH4C9+NH4MH solutions on plant mortality. The solutions were thickened by adding 0.5 g of the xanthan gum Rhodopol 23 suspended in 3.0 g propylene glycol to 96.5 g solution. The pH values of the test solutions were adjusted to 7.38.
# [5] = system: dandelions; experiment: Dandelion test of NH4C9 with a range of NH4MH concentrations (Example 3); assay type: in vivo; conditions: sprayed to wetness, 36 days after spraying
# Procedure: This test examined NH4C9 combined with a range of NH4MH concentrations. All of the NH4C9 treatments contained 3.9% NH4C9. All of the solutions were sprayed to wetness onto 10 dandelions. The number of dead plants was assessed 36 days after spraying.
# [6] = system: dandelions; experiment: Greenhouse dandelion test with a gum (Example 4), mortality; assay type: in vivo; conditions: pH 7.38
# Description: as §1
# [7] = system: dandelions; experiment: Greenhouse dandelion test of TopGun with and without MH (Example 5); assay type: in vivo; conditions: NH4MH 1.15%; sprayed to run-off; 15 days after spraying
# Procedure: TopGun is a proprietary emulsified formulation containing 18% C9 (nonanoic) acid present as free acid. TopGun was diluted to 1.8% C9 acid. Each solution was sprayed to run-off onto ten 20 cm diameter dandelions grown in the greenhouse. The number of dead plants was assessed 15 days after spraying.
# [8] = same number of moles of NH4MH and MH
# Procedure: The compositions of the solutions are listed below. Note that slightly more NH4MH was added than MH acid, as NH4MH has a higher molecular weight. The same number of moles of NH4MH and MH were used.
# Viscosity is measured in centipoise (milli pascal seconds). Water has a viscosity of 1.0.
# [9] = C9 acid 3.5% emulsified with Tween 80
structure (smiles),measurement,setting,value
"CCCCCCCCC(=O)O [C9 acid, Nonanoic acid]",Dead Plants (#/16),[1]; [9],3 #/16
same,Dead Plants (%),[1]; [9],19%
"CCCCCCCCC(=O)O.N [NH4C9, ammonium salt of nonanoic acid]",Dead Plants (#/36),[2]; NH4C9 3.9%,0 #/36
same,Dead Plants (%),[2]; NH4C9 3.9%,0%
same,Number of Dead Plants of 15 Total,[3]; NH4C9 3.9%,1
same,Contact herbicidal activity (in words),[3],good contact herbicides
same,Dead Plants (#/16),[1]; NH4C9 3.9%,2 #/16
same,Dead Plants (%),[1]; NH4C9 3.9%,13%
same,Viscosity (Cps),[4]; NH4C9 2.2%,1 Cps
same,Mortality (#/10 plants),[5]; NH4C9 3.9%,0 #/10 plants
same,Mortality (#/10),[6]; NH4C9 2.2%,1 #/10
"O=c1ccc(=O)[nH][nH]1 [MH, 1,2-dihydro-3,6-pyridazine-dione]",Number of Dead Plants of 15 Total,[3]; MH only 1%,0
C=CCCCCCCCCC(=O)O.N [NH4C11:1],Number of Dead Plants of 15 Total,[3]; NH4C11:1 3.9%,2
same,Contact herbicidal activity (in words),[3],good contact herbicides
"N.O=c1ccc(O)n[nH]1 [NH4MH, ammonium salt of maleic hydrazide]",Dead Plants (#/36),[2]; NH4MH 1.15%,1 #/36
same,Dead Plants (%),[2]; NH4MH 1.15%,3%
same,Number of Dead Plants (#/10 Plants),[7],0 #/10 Plants
same,Dead Plants (#/16),[1]; NH4MH 0.9% only,0 #/16
same,Dead Plants (%),[1]; NH4MH 0.9% only,0%
same,Solubility in NH4C9 concentrate compared with MH,[8],superior solubility
same,Viscosity (Cps),[4]; NH4MH 1.15%,1 Cps
same,Mortality (#/10 plants),[5]; NH4MH 1.15%,0 #/10 plants
same,Mortality (#/10),[6]; NH4MH 1.15%,0 #/10
